Results: US20120129843A1, “PYRIDYL-THIAZOLYL INHIBITORS OF PRO-MATRIX METALLOPROTEINASE ACTIVATION” (priority 2010, published 2012)
pIC50, pKd: −log10 of the molar value. Structures can show the parent of a compound that is named as a salt.

How the values were obtained:
[1] = molecular target: T1, proMMP9(20-445;ΔFnII) (SEQ ID NO:6) (Homo sapiens, UniProt P14780, DEL216-390); assay: ThermoFluor binding assay with proMMP9(20-445;ΔFnII)
T1 construct: start methionine (N); made in house; host or cells: E. coli BL21(DE3) RIL
T1 sequence (P14780 with tags, fused parts or gaps DEL216-390): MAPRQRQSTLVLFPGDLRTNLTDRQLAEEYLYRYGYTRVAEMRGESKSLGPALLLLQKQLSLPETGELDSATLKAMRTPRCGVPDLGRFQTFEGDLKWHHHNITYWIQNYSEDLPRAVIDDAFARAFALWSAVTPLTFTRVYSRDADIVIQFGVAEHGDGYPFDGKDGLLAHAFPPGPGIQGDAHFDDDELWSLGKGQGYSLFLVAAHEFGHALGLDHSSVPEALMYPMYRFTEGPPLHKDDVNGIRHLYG
Summary of the method: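 Thermal-shift binding using 2.8 μM proMMP9(20-445;ΔFnII) with 50 μM 1,8-ANS in 50 mM HEPES pH 7.0, 100 mM NaCl, 0.001% Tween-20, 2.5 mM MgCl2, 300 μM CaCl2. Compound serially diluted; heated 40–90 °C at 1 °C/min, fluorescence 500 nm. Tm shifts fitted using DSC/ThermoFluor-derived thermodynamic parameters.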

[2] = molecular target: T2, full-length proMMP9(1-707) (SEQ ID NO:1), activation by catalytic MMP3 (Homo sapiens, UniProt P14780, R574P); assay: proMMP9/MMP3 P126 Activation Assay; assay type: biochemical
T2 construct: made in house; host or cells: HEK293 (proMMP9, secreted); E. coli (MMP3)
T2 sequence (P14780 20-707 R574P): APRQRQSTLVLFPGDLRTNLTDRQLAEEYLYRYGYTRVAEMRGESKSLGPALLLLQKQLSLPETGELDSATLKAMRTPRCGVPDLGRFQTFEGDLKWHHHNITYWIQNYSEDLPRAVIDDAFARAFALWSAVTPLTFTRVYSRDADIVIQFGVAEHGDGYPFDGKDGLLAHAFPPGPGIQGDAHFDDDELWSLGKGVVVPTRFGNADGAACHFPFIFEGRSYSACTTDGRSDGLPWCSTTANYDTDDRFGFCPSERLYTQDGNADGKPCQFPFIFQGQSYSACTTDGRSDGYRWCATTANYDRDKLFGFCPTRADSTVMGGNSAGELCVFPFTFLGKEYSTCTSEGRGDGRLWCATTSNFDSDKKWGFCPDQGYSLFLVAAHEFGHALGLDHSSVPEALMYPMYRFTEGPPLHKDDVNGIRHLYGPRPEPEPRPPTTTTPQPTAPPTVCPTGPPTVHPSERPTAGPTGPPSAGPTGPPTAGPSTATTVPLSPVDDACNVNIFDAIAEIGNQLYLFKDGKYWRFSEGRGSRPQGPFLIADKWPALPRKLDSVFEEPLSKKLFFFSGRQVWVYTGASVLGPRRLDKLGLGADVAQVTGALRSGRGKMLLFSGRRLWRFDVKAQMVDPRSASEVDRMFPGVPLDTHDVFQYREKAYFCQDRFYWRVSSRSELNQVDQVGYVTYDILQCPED
Protocol: proMMP9/MMP3 P126 Activation Assay
The reaction volume was 50 μL. […] Reactivity of residual MMP3 towards P-126 substrate was minimal under these conditions.

[3] = molecular target: T3, proMMP9(67-444;ΔFnII) (SEQ ID NO:5) (Homo sapiens, UniProt P14780, DEL216-390); assay: ThermoFluor binding assay with proMMP9(67-444;ΔFnII)
T3 construct: start methionine (N); made in house; host or cells: E. coli BL21(DE3) RIL
T3 sequence (P14780 with tags, fused parts or gaps DEL216-390): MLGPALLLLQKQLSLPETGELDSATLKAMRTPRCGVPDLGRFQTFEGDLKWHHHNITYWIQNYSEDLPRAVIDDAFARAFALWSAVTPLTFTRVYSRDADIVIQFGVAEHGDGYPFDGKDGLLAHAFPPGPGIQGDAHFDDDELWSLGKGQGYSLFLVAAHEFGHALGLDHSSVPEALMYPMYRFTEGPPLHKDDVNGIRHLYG
Protocol: The ThermoFluor® (TF) assay is a 384-well plate-based binding assay that measures thermal stability of proteins (Biomol Screen 2001, 6, 429-40; Biochemistry 2005, 44, 5258-66). The experiments were carried out using instruments available from Johnson & Johnson Pharmaceutical Research & Development, LLC. TF dye used in all experiments was […] (1,8-ANS) (Invitrogen: A-47).
Compounds were arranged in a pre-dispensed plate (Greiner Bio-one: 781280), wherein compounds were serially diluted in 100% DMSO across 11 columns within a series. Columns 12 and 24 were used as DMSO reference and contained no compound. For multiple compound concentration-response experiments, the compound aliquots ([…]) were robotically predispensed directly into black 384-well polypropylene PCR microplates (Abgene: TF-0384/k) using a Cartesian Hummingbird liquid handler (DigiLab, Holliston, Mass.). Following compound dispense, protein and dye solutions were added to achieve the final assay volume of 3 μL. The assay solutions were overlayed with 1 μL of silicone oil (Fluka, type DC 200: 85411) to prevent evaporation.
Assay plates were robotically loaded onto a thermostatically controlled PCR-type thermal block and then heated from 40 to 90° C. at a ramp-rate of 1° C./min for all experiments. Fluorescence was measured by continuous illumination with UV light (Hamamatsu LC6) supplied via fiber optics and filtered through a band-pass filter (380-400 nm; >60D cutoff). Fluorescence emission of the entire 384-well plate was detected by measuring light intensity using a CCD camera (Sensys, Roper Scientific) filtered to detect 500±25 nm, resulting in simultaneous and independent readings of all 384 wells. A single image with 20-sec exposure time was collected at each temperature, and the sum of the pixel intensity in a given area of the assay plate was recorded vs temperature and fit to standard equations to yield the Tm (J Biomol Screen 2001, 6, 429-40).
Thermodynamic parameters necessary for fitting compound binding for each proMMP were estimated by differential scanning calorimetry (DSC) and from ThermoFluor® data. The heat capacity of unfolding for each protein was estimated from the molecular weight and from ThermoFluor® dosing data.
ThermoFluor® with proMMP9(67-444;ΔFnII) (SEQ ID NO:5)
The protein sample preparations had to include a desalting buffer exchange step via a PD-10 gravity column (GE Healthcare). The desalting buffer exchange was performed prior to diluting the protein to the final assay concentration of 3.5 μM proMMP9(67-444;ΔFnII) (SEQ ID NO:5). The concentration of proMMP9(67-444;ΔFnII) (SEQ ID NO:5) was determined spectrophotometrically based on a calculated extinction coefficient of ε280=33900 M^−1cm^−1, a calculated molecular weight of 22.6 kDa, and calculated pI of 5.20. ThermoFluor® reference conditions were defined as follows: 80 μg/mL (3.5 μM) proMMP9(67-444;ΔFnII) (SEQ ID NO:5), 50 μM 1,8-ANS, pH 7.0 Buffer (50 mM HEPES pH 7.0, 100 mM NaCl, 0.001% Tween-20, 2.5 mM MgCl2, 300 μM CaCl2). The thermodynamic parameters for proMMP9(67-444;ΔFnII) (SEQ ID NO:5) are as follows: Tm (° C.)=63 (+/−0.1), ΔUH(Tm) (cal mol^−1)=105000(+/−5000), ΔUS(Tm) (cal mol^−1 K^−1)=[…], ΔUCp (cal mol^−1 K^−1)=2000.

pKd [1]	pIC50 [2]	pKd [3]	SMILES
6.03	5.85	5.80	COc1ccc(S(N)(=O)=O)cc1Nc1nc(-c2ccc(N3CCN(C)CC3)nc2)cs1 [Example 29, 4-Methoxy-3-{4-[6-(4-methyl-piperazin-1-yl)-pyridin-3-yl]-thiazol-2-ylamino}-benzenesulfonamide]
7.32	7.14	6.89	CC(C)Oc1ccc(S(N)(=O)=O)cc1Nc1nc(-c2ccc(N3CCNCC3)nc2)cs1 [Example 44, 4-Isopropoxy-3-[4-(6-piperazin-1-yl-pyridin-3-yl)-thiazol-2-ylamino]-benzenesulfonamide.TFA]
6.37	6.12	6.16	CN1CCN(c2ccc(-c3csc(Nc4cc(S(N)(=O)=O)ccc4OC(F)(F)F)n3)cn2)CC1 [Example 30, 3-{4-[6-(4-Methyl-piperazin-1-yl)-pyridin-3-yl]-thiazol-2-ylamino}-4-trifluoromethoxy-benzenesulfonamide]
7.36	7.06	6.48	CC(C)Oc1ccc(S(N)(=O)=O)cc1Nc1nc(-c2ccc(N3CCCN(C)CC3)nc2)cs1 [Example 40, 4-Isopropoxy-3-{4-[6-(4-methyl-[1,4]diazepan-1-yl)-pyridin-3-yl]-thiazol-2-ylamino}-benzenesulfonamideamide.TFA]

Continued, compound first:

SMILES	pKd [1]	pIC50 [2]	pKd [3]
CC(C)Oc1ccc(S(N)(=O)=O)cc1Nc1nc(-c2ccc(C(=O)N3CCC(N(C)C)CC3)nc2)cs1 [Example 48, 3-{4-[6-(4-Dimethylamino-piperidine-1-carbonyl)-pyridin-3-yl]-thiazol-2-ylamino}-4-isopropoxy-benzenesulfonamide.TFA]	5.64	5.96	5.39
COC/C=C/c1ccc(-c2csc(Nc3cc(S(N)(=O)=O)ccc3OC(C)C)n2)cn1 [Example 93, (E)-4-Isopropoxy-3-((4-(6-(3-methoxyprop-1-en-1-yl)pyridin-3-yl)thiazol-2-yl)amino)benzenesulfonamide.TFA]	6.24	6.28	5.47
CN1CCN(c2cc(-c3csc(Nc4cc(C(N)=O)ccc4OC(F)(F)F)n3)ccn2)CC1 [Example 36, 3-{4-[2-(4-Methyl-piperazin-1-yl)-pyridin-4-yl]-thiazol-2-ylamino}-4-trifluoromethoxy-benzamide.TFA]	5.89	5.64	5.14
CC(C)Oc1ccc(S(N)(=O)=O)cc1Nc1nc(-c2ccc(C(=O)NC3CC(C)(C)N(C)C(C)(C)C3)nc2)cs1 [Example 84, 5-(2-((2-Isopropoxy-5-sulfamoylphenyl)amino)thiazol-4-yl)-N-(1,2,2,6,6-pentamethylpiperidin-4-yl)picolinamide.TFA]	6.60	6.59	6.70
CC(C)Oc1ccc(S(N)(=O)=O)cc1Nc1nc(-c2ccc(C(=O)N3CCNCC3)nc2)cs1 [Example 58, 4-Isopropoxy-3-{4-[6-(piperazine-1-carbonyl)-pyridin-3-yl]-thiazol-2-ylamino}-benzenesulfonamide.TFA]	5.92	5.85	5.51
CC(C)Oc1ccc(S(C)(=O)=O)cc1Nc1nc(-c2cccnc2)cs1 [Example 10, (2-Isopropoxy-5-methanesulfonyl-phenyl)-(4-pyridin-3-yl-thiazol-2-yl)-amine.TFA]	6.18	5.59	5.46
CN1CCN(c2ccc(-c3csc(Nc4cc(C(N)=O)ccc4OC(F)(F)F)n3)cn2)CC1 [Example 31, 3-{4-[6-(4-Methyl-piperazin-1-yl)-pyridin-3-yl]-thiazol-2-ylamino}-4-trifluoromethoxy-benzamide]	6.96	6.19	6.21
CCN1CCCN(C(=O)c2ccc(-c3csc(Nc4cc(S(N)(=O)=O)ccc4OC(C)C)n3)cn2)CC1 [Example 52, 3-{4-[6-(4-Ethyl-[1,4]diazepane-1-carbonyl)-pyridin-3-yl]-thiazol-2-ylamino}-4-isopropoxy-benzenesulfonamide.TFA]	5.92	6.00	5.66
